Assay results as given in patent publication US11787854B2, “Immunological targeting of pathological tau proteins” (New York University, priority 2009, dated 2023).

Tests used:
[1] = system: homozygous JNPL3 tau P301L mice; assay: Rotarod test, actively immunized JNPL3 P301L mice; type: in vivo, mouse; conditions: at 5-6 months of age and at 8-9 months of age, vs adjuvant alone
Description: (§1) JNPL3 P301L mice received a subcutaneous injection of 100 μl followed by a second injection 2 weeks later and then monthly thereafter (unless otherwise indicated). Vaccination started at 2-3 months of age and continued until the animals were 8-9 months of age at which time the animals were perfused and their organs collected for analysis. The mice went through a battery of sensorimotor tests at 5-6 months and again at 8-9 months of age prior to sacrifice. Control mice received the adjuvant alone.
Rotarod Test: Animals were placed onto the rod (diameter 3.6 cm) apparatus to assess differences in motor coordination and balance by measuring fore- and hindlimb motor coordination and balance (Rotarod 7650 accelerating model; Ugo Basile, Biological Research Apparatus, Varese, Italy). This procedure was designed to assess motor behavior without a practice confound. The animals were habituated to the apparatus by receiving training sessions of two trials, sufficient to reach a baseline level of performance. Then, the mice were tested three additional times, with increasing speed. During habituation, the rotarod was set at 1.0 rpm, which was gradually raised every 30 sec, and was also wiped clean with 30% ethanol solution after each session. A soft foam cushion was placed beneath the apparatus to prevent potential injury from falling. […]

JNPL3 P301L tangle mice = conditions: mouse, in vivo
pathological tau = assay: PHF1 immunostaining of pathological tau in brain of actively immunized JNPL3 P301L mice; type: in vivo, mouse; conditions: compared to control mice receiving adjuvant only
Description: as §1, with “alone. […]” for “alone.”
Analysis of tissue sections was quantified with a Bioquant image analysis system. […] For quantitative image analysis of immunohistochemistry, the granular layer of the dentate gyrus was initially selected which consistently contained intraneuronal tau aggregates (pretangles and tangles). […] Four to five sections were analyzed per animal.

[2] = system: homozygous JNPL3 tau P301L mice; assay: Traverse beam test, actively immunized JNPL3 P301L mice; type: in vivo, mouse; conditions: at 8 months of age, vs adjuvant alone
Description: as §1
Traverse Beam: This task tests balance and general motor coordination and function integration. Mice were assessed by measuring their ability to traverse a graded narrow wooden beam to reach a goal box (Torres et al., “Behavioural, Histochemical and Biochemical Consequences of Selective Immunolesions in Discrete Regions of the Basal Forebrain Cholinergic System,” Neuroscience 63:95-122 (1994), which is hereby incorporated by reference in its entirety). The mice were placed on a 1.1 cm wide beam that is 50.8 cm long and suspended 30 cm above a padded surface by two identical columns. […] Mice were placed on the beam in a perpendicular orientation to habituate and were then monitored for a maximum of 60 sec. The number of foot slips each mouse had before falling or reaching the goal box were recorded for each of four successive trials. Errors are defined as footslips and were recorded numerically.

| Substance | functional impairment, rotarod test [1] | antibody response against the immunogen (JNPL3 P301L tangle mice) | antibody response against the tau epitope (JNPL3 P301L tangle mice) | pathological tau (PHF1 immunostaining) in the brain stem (pathological tau) | pathological tau (PHF1 immunostaining) in the dentate gyrus (pathological tau) | functional impairment, traverse beam (footslips) [2] |
| --- | --- | --- | --- | --- | --- | --- |
| IGS*TE [Tau260-264[P-Ser262]] | prevented functional impairment | robust IgG response against the immunogen | a good portion of the antibody response is also generated against the tau epitope | reduced the levels of pathological tau | reduced the levels of pathological tau | prevented functional impairment |
| RENAKAKTDHGAEIVYKXPVVSGDTXPRHL [Tau379-408[Asp396, 404]] | – | robust antibody (IgG) response | – | – | – | – |
| SRT*PS*LP [Tau210-216[P-Thr212-Ser214]] | – | robust IgG and IgM immune response | – | – | – | – |
| VRT*PPKS*PS [Tau229-237[P-Thr231-Ser235]] | – | robust antibody (IgG) response | – | – | – | – |
